Assay results from article PMC6572996, “Silver(I) Complexes of the Pharmaceutical Agents Metronidazole and 4-Hydroxymethylpyridine: Comparison of Cytotoxic Profile for Potential Clinical Application” (Molecules, 2019).
Blank lines part the entries; values can stand above or below the compound they belong to.

Columns and labels:
[1] = system: Balb/c 3T3 cells; test: NRU assay (lysosomal activity), Balb/c 3T3; type: cell-based, mouse; details: for IC50: Balb/c 3T3, 72 h exposure, mean (n = 3) ± SEM, read-out: Inhibitory concentration IC50, NRU
Description: (§1) Data obtained from the measurement of the optical density in these assays were transformed to percentages in relation to the control group, considered to be 100% for the MTT, NRU, and TPC assays and 0% for the LDH assay (Figure 1).
(§2) The human hepatoma cell line (HepG2) was purchased from the American Type Culture Collection (ATCC HB-8065). These cells were cultured in Minimum Essential Medium Eagle (MEME) (ATCC). The murine fibroblast cell line (Balb/c 3T3 clone A31) (gift from Department of Swine Diseases of the National Veterinary Research Institute in Pulawy) was cultured in Dulbecco’s Modified Eagle’s Medium (DMEM) (ATCC). The media were supplemented with 10% BCS (Balb/c 3T3), 10% FBS (HepG2), 1% L-glutamine, and 1% antibiotic solution. The cells were maintained in 75 cm^2 cell culture flasks (Nunc, Roskilde, Denmark) in a humidified incubator, NuAire (Plymouth, MN, USA) at 37 °C, in an atmosphere of 5% CO2. The medium was refreshed every two or three days and the cells were trypsinized by 0.25% trypsin–0.02% EDTA after reaching 70–80% confluence. Single cell suspensions were prepared and adjusted to a density of 2 × 10^5 cells/mL (HepG2) and 5 × 10^4 cells/mL (Balb/c 3T3). The cell suspension was transferred to 96-well plates (100 µL/well) and incubated for 24 h before the exposure to the study compounds.
(§3) The concentration ranges of compounds were chosen according to their solubility and their plasma level. Each compound was dissolved in DMSO. The final concentration of DMSO was 0.1% in the medium. The same final concentrations of the solvent and the 1% Trition-X 100 solution were used as the negative and positive controls, respectively. […] All compound solutions in the medium were freshly prepared and protected from light. […] The concentration range was selected on the basis of results from previous studies. Each concentration was tested in six replicates with three independent experiments. Cytotoxicity was assessed after 72 h of exposure of the cells to the compounds. The medium was not changed during the incubation time.
(§4) The assay, based on the staining of living cells by neutral red, was performed according to the protocol described by Borenfreund and Puerner. After incubation, the medium containing the compound was removed and the cells were washed with PBS. Then, a 100 µL/well of NR solution (50 µg/mL) was added for 3 h. After that time, the cells were washed with PBS. The dye from viable cells was released by extraction with a mixture of acetic acid, ethanol, and water. After 10 min of shaking, the absorbance of the dissolved NR was measured at 540 nm in a microplate reader (LabSystems Multiskan RC, Thermo Fisher Scientific, Waltham, MA, USA) using a blank as a reference. Cytotoxicity was expressed as a percentage of the negative control (0.1% DMSO).
(§5) The results of the tests were expressed as a mean ± SD. The experiments were performed in three independent repetitions. Statistical analysis was performed using GraphPad Prism 5 (San Diego, CA, USA). One-way analysis of variance (ANOVA) followed by Dunnett’s post-hoc test was applied. The 50% inhibition (cytotoxicity) concentrations (IC50) were derived from the dose–response curve plotted with the concentration of the compound (X-axis) vs. cell viability percent (Y-axis). The IC50 values were calculated by GraphPad Prism 5 software (San Diego, CA, USA). Statistical comparisons among IC50 values were performed by the analysis of variance (ANOVA) followed by the Tukey test. Values of p ≤ 0.05 were considered statistically significant.

[2] = system: murine melanoma (B16) cell line; parameters: method as in PMID 26828469; details: cited from earlier work
[3] = system: HepG2 cells; test: NRU assay (lysosomal activity), HepG2; type: cell-based, human; details: for Lowest concentration with significant (p ≤ 0.05) inhibition of lysosomal activity (NRU): HepG2, 72 h, vs negative control 0.1% DMSO; for IC50: HepG2, 72 h exposure, mean (n = 3) ± SEM, read-out: Inhibitory concentration IC50, NRU
Description: as §1, §2, §3, §4, §5

[4] = system: HepG2 cells; test: TPC assay (total protein content), HepG2; type: cell-based, human; details: for Lowest concentration with significant (p ≤ 0.05) decrease of total protein content (TPC): HepG2, 72 h, vs negative control 0.1% DMSO; for IC50: HepG2, 72 h exposure, mean (n = 3) ± SEM, read-out: Inhibitory concentration IC50, TPC
Description: as §1, §2, §3
(§6) The assay was based upon staining total cellular protein (proliferation). After incubation, the medium containing the compound was removed and 100 µL of Coomassie Brilliant Blue R-250 dye were added to each well. The plate was shaken for 10 min. Then, the stain was removed and the cells were rinsed twice with 100 µL of washing solution (glacial acetic acid/ethanol/water). After that, a 100 µL portion of the desorbing solution (1 M potassium acetate) was added and plates were shaken again for 10 min. The absorbance was measured at 595 nm in a microplate reader (LabSystems Multiskan RC, Thermo Fisher Scientific, Waltham, MA, USA) using a blank as a reference. Cytotoxicity was expressed as a percentage of the negative control (0.1% DMSO).
as §5

[5] = system: Balb/c 3T3 cells; test: TPC assay (total protein content), Balb/c 3T3; type: cell-based, mouse; details: for IC50: Balb/c 3T3, 72 h exposure, mean (n = 3) ± SEM, read-out: Inhibitory concentration IC50, TPC
Description: as §1, §2, §3, §6, §5

[6] = system: murine fibroblasts (L929); parameters: method as in PMID 18364400; details: 24 h exposure; read-out: IC50, L929, NRU assay; cited from earlier work
[7] = system: Balb/c 3T3 cells; test: MTT assay (mitochondrial activity), Balb/c 3T3; type: cell-based, mouse; details: for Lowest concentration with significant (p ≤ 0.05) inhibition of mitochondrial activity (MTT): Balb/c 3T3, 72 h, vs negative control 0.1% DMSO; for IC50: Balb/c 3T3, 72 h exposure, mean (n = 3) ± SEM, read-out: Inhibitory concentration IC50, MTT
Description: as §1, §2, §3
(§7) The metabolic activity of living cells was assessed by measuring the activity of dehydrogenases. After incubation of the cells with the compounds, a 10 μL portion of the MTT solution (5 mg/ml in PBS) was added to each well of the 96-well plates and incubated. After 3 h, the MTT solution was removed and the intracellular formazan crystals were dissolved in 100 µl DMSO. The plate was shaken for 15 min at room temperature and transferred to a microplate reader (LabSystems Multiskan RC, Thermo Fisher Scientific, Waltham, MA, USA) to measure the absorbance at 570 nm, using blanks as a reference. Cytotoxicity was expressed as a percentage of the negative control (0.1% DMSO).
as §5

[8] = system: HepG2 cells; test: MTT assay (mitochondrial activity), HepG2; type: cell-based, human; details: for IC50: HepG2, 72 h exposure, mean (n = 3) ± SEM, read-out: Inhibitory concentration IC50, MTT
Description: as §1, §2, §3, §7, §5

[9] = system: HepG2 cells; test: Leakage LDH assay (cellular membrane integrity), HepG2; type: cell-based, human; details: for IC50: HepG2, 72 h exposure, mean (n = 3) ± SEM, read-out: Inhibitory concentration IC50, LDH
Description: as §1, §2, §3
(§8) The integrity of the plasma membrane was assessed using the test of lactate dehydrogenase (LDH) release, which was monitored using the commercially available Cytotoxicity Detection Kit (LDH) (Roche Diagnostics, Warsaw, Poland). The medium (100 µL/well) without cells was transferred into the corresponding wells of an optically clear 96-well flat bottom microplate and a 100 µl reaction mixture was added to each well. Then, the plates were incubated for 30 min at room temperature in darkness. After that time, a 50 µL/well 1 M HCl was added to stop the reaction. The absorbance was measured at 492 nm in a microplate reader (LabSystems Multiskan RC, Thermo Fisher Scientific, Waltham, MA, USA) using a blank as a reference.
as §5

[10] = system: Balb/c 3T3 cells; test: Leakage LDH assay (cellular membrane integrity), Balb/c 3T3; type: cell-based, mouse; details: for IC50: Balb/c 3T3, 72 h exposure, mean (n = 3) ± SEM, read-out: Inhibitory concentration IC50, LDH
Description: as §1, §2, §3, §8, §5

[11] = Balb/c 3T3, 72 h, vs negative control 0.1% DMSO
[12] = HepG2, 72 h, vs negative control 0.1% DMSO

SMILES: O=[N+]([O-])[O-].[Ag+] [Silver nitrate]
- Lowest concentration with significant (p ≤ 0.05) inhibition of lysosomal activity (NRU) [1, 11]: 2.2 µM
- IC50 [1]: 2940 ± 1060 nM
- IC50 ([2]; 72 h incubation): 9.74 µM
- Lowest concentration with significant (p ≤ 0.05) inhibition of lysosomal activity (NRU) [3]: 4.4 µM
- IC50 [3]: 6.18 ± 1.41 µM
- Lowest concentration with significant (p ≤ 0.05) decrease of total protein content (TPC) [4]: 8.8 µM
- IC50 [4]: 60.3 ± 8.1 µM
- Lowest concentration with significant (p ≤ 0.05) decrease of total protein content (TPC) [5, 11]: 2.2 µM
- IC50 [5]: 2590 ± 1300 nM
- IC50 [6]: 2550 nM
- Lowest concentration with significant (p ≤ 0.05) inhibition of mitochondrial activity (MTT) [7]: 2.2 µM
- IC50 [7]: 2130 ± 880 nM
- Lowest concentration with significant (p ≤ 0.05) inhibition of mitochondrial activity (MTT) [8, 12]: 4.4 µM
- IC50 [8]: 6.48 ± 1.6 µM
- Lowest concentration with significant (p ≤ 0.05) disintegration of the cellular membrane (LDH) [9, 12]: 4.4 µM
- IC50 [9]: 3.47 ± 0.24 µM
- Lowest concentration with significant (p ≤ 0.05) disintegration of the cellular membrane (LDH) [10, 11]: 2.2 µM
- IC50 [10]: 3.12 ± 0.06 µM

- IC50 ([3]; Homo sapiens): > 146 µM
- IC50 ([4]; Homo sapiens): > 146 µM
- IC50 ([8]; Homo sapiens): > 146 µM
- IC50 ([9]; Homo sapiens): > 146 µM
SMILES: Cc1ncc([N+](=O)[O-])n1CCO [Metronidazole]
- IC50 ([1]; Mus musculus, BALB/c3T3): > 146000 nM
- Cytotoxicity in B16 cell line ([2]; same observation as in this study): poorly cytotoxic
- Lowest concentration with significant (p ≤ 0.05) inhibition of lysosomal activity (NRU) [3]: 146 µM
- Lowest concentration with significant (p ≤ 0.05) decrease of total protein content (TPC) [4]: 8.8 µM
- IC50 ([5]; Mus musculus, BALB/c3T3): > 146000 nM
- Lowest concentration with significant (p ≤ 0.05) inhibition of mitochondrial activity (MTT) [7]: 36 µM
- IC50 ([7]; Mus musculus, BALB/c3T3): > 146000 nM
- IC50 ([10]; Mus musculus, BALB/c3T3): > 146 µM
